Laboratory results as given in ChEMBL document CHEMBL1806489, “Synthesis and biological evaluation of novel F-18 labeled pyrazolo[1,5-a]pyrimidine derivatives: potential PET imaging agents for tumor detection” (Bioorg Med Chem Lett, 2011).

Assays:
[1] = system: Blood; assay: Biodistribution in mouse S180 cells xenografted Kunming mouse blood at 370 kBq/0.1 mL, iv after 30 mins by gamma counting; type: ADME, organism-based, CCRF S-180; details: in vivo, 0.5 h
[2] = system: Blood; assay: Biodistribution in mouse S180 cells xenografted Kunming mouse blood at 370 kBq/0.1 mL, iv after 120 mins by gamma counting; type: ADME, organism-based, CCRF S-180; details: in vivo, 2 h
[3] = system: Spleen; assay: Biodistribution in mouse S180 cells xenografted Kunming mouse spleen at 370 kBq/0.1 mL, iv after 15 mins by gamma counting; type: ADME, organism-based, CCRF S-180; details: in vivo, 0.25 h
[4] = system: Muscle tissue; assay: Biodistribution in mouse S180 cells xenografted Kunming mouse muscle at 370 kBq/0.1 mL, iv after 5 mins by gamma counting; type: ADME, organism-based, CCRF S-180; details: in vivo
[5] = system: Nucleic Acid; assay: Ratio of drug level in tumor to brain in mouse S180 cells xenografted Kunming mouse at 370 kBq/0.1 mL, iv after 120 mins by gamma counting; type: ADME, organism-based, CCRF S-180; details: in vivo, 2 h
[6] = system: Blood; assay: Biodistribution in mouse S180 cells xenografted Kunming mouse blood at 370 kBq/0.1 mL, iv after 5 mins by gamma counting; type: ADME, organism-based, CCRF S-180; details: in vivo
[7] = system: Mus musculus; assay: Biodistribution in mouse S180 cells xenografted Kunming mouse tumor at 370 kBq/0.1 mL, iv after 15 mins by gamma counting; type: ADME, organism-based, Neoplasm, CCRF S-180; details: in vivo, 0.25 h
[8] = system: Nucleic Acid; assay: Ratio of drug level in tumor to blood in mouse S180 cells xenografted Kunming mouse at 370 kBq/0.1 mL, iv after 120 mins by gamma counting; type: ADME, organism-based, CCRF S-180; details: tumour, 2 h
[9] = system: Brain; assay: Biodistribution in mouse S180 cells xenografted Kunming mouse brain at 370 kBq/0.1 mL, iv after 120 mins by gamma counting; type: ADME, organism-based, CCRF S-180; details: in vivo, 2 h
[10] = system: Nucleic Acid; assay: Ratio of drug level in tumor to brain in mouse S180 cells xenografted Kunming mouse at 370 kBq/0.1 mL, iv after 15 mins by gamma counting; type: ADME, organism-based, CCRF S-180; details: in vivo, 0.25 h
[11] = system: Lung; assay: Biodistribution in mouse S180 cells xenografted Kunming mouse lung at 370 kBq/0.1 mL, iv after 120 mins by gamma counting; type: ADME, organism-based, CCRF S-180; details: in vivo, 2 h
[12] = system: Lung; assay: Biodistribution in mouse S180 cells xenografted Kunming mouse lung at 370 kBq/0.1 mL, iv after 60 mins by gamma counting; type: ADME, organism-based, CCRF S-180; details: in vivo, 1 h
[13] = system: Muscle tissue; assay: Biodistribution in mouse S180 cells xenografted Kunming mouse muscle at 370 kBq/0.1 mL, iv after 30 mins by gamma counting; type: ADME, organism-based, CCRF S-180; details: in vivo, 0.5 h
[14] = system: Brain; assay: Biodistribution in mouse S180 cells xenografted Kunming mouse brain at 370 kBq/0.1 mL, iv after 5 mins by gamma counting; type: ADME, organism-based, CCRF S-180; details: in vivo
[15] = system: Kidney; assay: Biodistribution in mouse S180 cells xenografted Kunming mouse kidney at 370 kBq/0.1 mL, iv after 60 mins by gamma counting; type: ADME, organism-based, CCRF S-180; details: in vivo, 1 h
[16] = system: CCRF S-180; assay: Cellular uptake in mouse S180 cells relative to [18F]FDG; type: ADME, cell-based
[17] = system: Spleen; assay: Biodistribution in mouse S180 cells xenografted Kunming mouse spleen at 370 kBq/0.1 mL, iv after 120 mins by gamma counting; type: ADME, organism-based, CCRF S-180; details: in vivo, 2 h
[18] = system: Nucleic Acid; assay: Ratio of drug level in tumor to muscle in mouse S180 cells xenografted Kunming mouse at 370 kBq/0.1 mL, iv after 5 mins by gamma counting; type: ADME, organism-based, CCRF S-180; details: in vivo
[19] = system: Nucleic Acid; assay: Ratio of drug level in tumor to muscle in mouse S180 cells xenografted Kunming mouse at 370 kBq/0.1 mL, iv after 30 mins by gamma counting; type: ADME, organism-based, CCRF S-180; details: in vivo, 0.5 h
[20] = system: Brain; assay: Biodistribution in mouse S180 cells xenografted Kunming mouse brain at 370 kBq/0.1 mL, iv after 15 mins by gamma counting; type: ADME, organism-based, CCRF S-180; details: in vivo, 0.25 h
[21] = system: Liver; assay: Biodistribution in mouse S180 cells xenografted Kunming mouse liver at 370 kBq/0.1 mL, iv after 30 mins by gamma counting; type: ADME, organism-based, CCRF S-180; details: in vivo, 0.5 h
[22] = system: Nucleic Acid; assay: Ratio of drug level in tumor to brain in mouse S180 cells xenografted Kunming mouse at 370 kBq/0.1 mL, iv after 5 mins by gamma counting; type: ADME, organism-based, CCRF S-180; details: in vivo
[23] = system: Nucleic Acid; assay: Ratio of drug level in tumor to muscle in mouse S180 cells xenografted Kunming mouse at 370 kBq/0.1 mL, iv after 120 mins by gamma counting; type: ADME, organism-based, CCRF S-180; details: in vivo, 2 h
[24] = system: Muscle tissue; assay: Biodistribution in mouse S180 cells xenografted Kunming mouse muscle at 370 kBq/0.1 mL, iv after 60 mins by gamma counting; type: ADME, organism-based, CCRF S-180; details: in vivo, 1 h
[25] = system: Plasma; assay: Metabolic stability in mouse plasma at 3.7 MBq after 1 to 2 hrs; type: ADME, cell-free
[26] = system: Heart; assay: Biodistribution in mouse S180 cells xenografted Kunming mouse heart at 370 kBq/0.1 mL, iv after 5 mins by gamma counting; type: ADME, organism-based, CCRF S-180; details: in vivo
[27] = system: Muscle tissue; assay: Biodistribution in mouse S180 cells xenografted Kunming mouse muscle at 370 kBq/0.1 mL, iv after 15 mins by gamma counting; type: ADME, organism-based, CCRF S-180; details: in vivo, 0.25 h
[28] = system: CCRF S-180; assay: Cellular uptake in mouse S180 cells after 60 mins; type: ADME, cell-based; details: ccrf s-180, 1 h
[29] = system: Mus musculus; assay: Biodistribution in mouse S180 cells xenografted Kunming mouse tumor at 370 kBq/0.1 mL, iv after 5 mins by gamma counting; type: ADME, organism-based, Neoplasm, CCRF S-180; details: in vivo
[30] = system: Nucleic Acid; assay: Ratio of drug level in tumor to blood in mouse S180 cells xenografted Kunming mouse at 370 kBq/0.1 mL, iv after 30 mins by gamma counting; type: ADME, organism-based, CCRF S-180; details: tumour, 0.5 h
[31] = system: Nucleic Acid; assay: Ratio of drug level in tumor to blood in mouse S180 cells xenografted Kunming mouse at 370 kBq/0.1 mL, iv after 60 mins by gamma counting; type: ADME, organism-based, CCRF S-180; details: tumour, 1 h
[32] = system: Muscle tissue; assay: Biodistribution in mouse S180 cells xenografted Kunming mouse muscle at 370 kBq/0.1 mL, iv after 120 mins by gamma counting; type: ADME, organism-based, CCRF S-180; details: in vivo, 2 h
[33] = system: Heart; assay: Biodistribution in mouse S180 cells xenografted Kunming mouse heart at 370 kBq/0.1 mL, iv after 120 mins by gamma counting; type: ADME, organism-based, CCRF S-180; details: in vivo, 2 h
[34] = Partition coefficient, log P of the compound; type: physicochemical; details: octanol/water
[35] = system: Nucleic Acid; assay: Ratio of drug level in tumor to blood in mouse S180 cells xenografted Kunming mouse at 370 kBq/0.1 mL, iv after 5 mins by gamma counting; type: ADME, organism-based, CCRF S-180; details: tumour
[36] = system: Mus musculus; assay: Biodistribution in mouse S180 cells xenografted Kunming mouse tumor at 370 kBq/0.1 mL, iv after 60 mins by gamma counting; type: ADME, organism-based, Neoplasm, CCRF S-180; details: in vivo, 1 h
[37] = system: Lung; assay: Biodistribution in mouse S180 cells xenografted Kunming mouse lung at 370 kBq/0.1 mL, iv after 15 mins by gamma counting; type: ADME, organism-based, CCRF S-180; details: in vivo, 0.25 h
[38] = system: Spleen; assay: Biodistribution in mouse S180 cells xenografted Kunming mouse spleen at 370 kBq/0.1 mL, iv after 30 mins by gamma counting; type: ADME, organism-based, CCRF S-180; details: in vivo, 0.5 h
[39] = system: Lung; assay: Biodistribution in mouse S180 cells xenografted Kunming mouse lung at 370 kBq/0.1 mL, iv after 30 mins by gamma counting; type: ADME, organism-based, CCRF S-180; details: in vivo, 0.5 h
[40] = system: Mus musculus; assay: Biodistribution in mouse S180 cells xenografted Kunming mouse tumor at 370 kBq/0.1 mL, iv after 30 mins by gamma counting; type: ADME, organism-based, Neoplasm, CCRF S-180; details: in vivo, 0.5 h
[41] = system: Nucleic Acid; assay: Ratio of drug level in tumor to muscle in mouse S180 cells xenografted Kunming mouse at 370 kBq/0.1 mL, iv after 60 mins by gamma counting; type: ADME, organism-based, CCRF S-180; details: in vivo, 1 h
[42] = system: Liver; assay: Biodistribution in mouse S180 cells xenografted Kunming mouse liver at 370 kBq/0.1 mL, iv after 60 mins by gamma counting; type: ADME, organism-based, CCRF S-180; details: in vivo, 1 h
[43] = system: Blood; assay: Biodistribution in mouse S180 cells xenografted Kunming mouse blood at 370 kBq/0.1 mL, iv after 60 mins by gamma counting; type: ADME, organism-based, CCRF S-180; details: in vivo, 1 h

Structure (SMILES): Cc1cc(NCC[18F])n2ncc(C#N)c2n1
- Drug uptake [1]: 4.49 % ID/g
- Drug uptake [2]: 2.95 % ID/g
- Drug uptake [3]: 3.42 % ID/g
- Drug uptake [4]: 3.99 % ID/g
- Ratio [5]: 1.61
- Drug uptake [6]: 4.83 % ID/g
- Drug uptake [7]: 4.37 % ID/g
- Ratio [8]: 0.98
- Drug uptake [9]: 1.79 % ID/g
- Ratio [10]: 1.62
- Drug uptake [11]: 2.54 % ID/g
- Drug uptake [12]: 2.78 % ID/g
- Drug uptake [13]: 3.05 % ID/g
- Drug uptake [14]: 3.17 % ID/g
- Drug uptake [15]: 2.58 % ID/g
- fold change (FC) [16]: 2
- Drug uptake [17]: 2.15 % ID/g
- Ratio [18]: 0.47
- Ratio [19]: 1.81
- Drug uptake [20]: 2.7 % ID/g
- Drug uptake [21]: 3.17 % ID/g
- Ratio [22]: 0.59
- Ratio [23]: 1.09
- Drug uptake [24]: 2.31 % ID/g
- Stability [25]: Stable
- Drug uptake [26]: 5.53 % ID/g
- Drug uptake [27]: 3.84 % ID/g
- Drug uptake [28]: 9%
- Drug uptake [29]: 1.88 % ID/g
- Ratio [30]: 1.23
- Ratio [31]: 0.81
- Drug uptake [32]: 2.64 % ID/g
- Drug uptake [33]: 2.59 % ID/g
- logP [34]: 0.68
- Ratio [35]: 0.39
- Drug uptake [36]: 2.95 % ID/g
- Drug uptake [37]: 3.79 % ID/g
- Drug uptake [38]: 3.43 % ID/g
- Drug uptake [39]: 3.77 % ID/g
- Drug uptake [40]: 5.51 % ID/g
- Ratio [41]: 1.28
- Drug uptake [42]: 2.45 % ID/g
- Drug uptake [43]: 3.63 % ID/g

Structure (SMILES): Cc1cc(NCCNC(=O)c2ccc([N+](=O)[O-])cc2[18F])n2ncc(C#N)c2n1
- Drug uptake [1]: 1.42 % ID/g
- Drug uptake [2]: 0.09 % ID/g
- Drug uptake [3]: 1.96 % ID/g
- Drug uptake [4]: 3.82 % ID/g
- Ratio [5]: 5.13
- Drug uptake [6]: 5.23 % ID/g
- Drug uptake [7]: 1.99 % ID/g
- Ratio [8]: 2.5
- Drug uptake [9]: 0.04 % ID/g
- Ratio [10]: 12.35
- Drug uptake [11]: 0.19 % ID/g
- Drug uptake [12]: 0.56 % ID/g
- Drug uptake [13]: 0.89 % ID/g
- Drug uptake [14]: 0.38 % ID/g
- Drug uptake [15]: 1.83 % ID/g
- Drug uptake [16]: < 7%
- Drug uptake [17]: 0.14 % ID/g
- Ratio [18]: 0.59
- Ratio [19]: 1.4
- Drug uptake [20]: 0.16 % ID/g
- Drug uptake [21]: 7.3 % ID/g
- Ratio [22]: 5.87
- Ratio [23]: 0.77
- Drug uptake [24]: 0.47 % ID/g
- Stability [25]: Stable
- Drug uptake [26]: 5.77 % ID/g
- Drug uptake [27]: 2.07 % ID/g
- Drug uptake [28]: 9%
- Drug uptake [29]: 2.26 % ID/g
- Ratio [30]: 0.88
- Ratio [31]: 1.66
- Drug uptake [32]: 0.28 % ID/g
- Drug uptake [33]: 0.12 % ID/g
- logP [34]: 0.69
- Ratio [35]: 0.43
- Drug uptake [36]: 0.74 % ID/g
- Drug uptake [37]: 2.6 % ID/g
- Drug uptake [38]: 0.99 % ID/g
- Drug uptake [39]: 1.19 % ID/g
- Drug uptake [40]: 1.24 % ID/g
- Ratio [41]: 1.57
- Drug uptake [42]: 4.07 % ID/g
- Drug uptake [43]: 0.45 % ID/g
